Measured values published in ChEMBL document CHEMBL1142498 (J Med Chem, 2008).

What was measured:
[1] = biological target: Sodium-dependent serotonin transporter (Homo sapiens, UniProt P31645); type: cell-based, JAR
Description: Inhibition of 5-HT transporter-mediated [3H]5HT uptake in human Jar cells

[2] = biological target: Sodium-dependent serotonin transporter (Rattus norvegicus, UniProt P31652)
Description: Displacement of [3H]paroxetine from serotonin transporter in Sprague-Dawley rat frontal cortical membrane

[3] = biological target: T1, 5-hydroxytryptamine receptor 1A (Homo sapiens, UniProt P08908)
T1 sequence (P08908 whole entry): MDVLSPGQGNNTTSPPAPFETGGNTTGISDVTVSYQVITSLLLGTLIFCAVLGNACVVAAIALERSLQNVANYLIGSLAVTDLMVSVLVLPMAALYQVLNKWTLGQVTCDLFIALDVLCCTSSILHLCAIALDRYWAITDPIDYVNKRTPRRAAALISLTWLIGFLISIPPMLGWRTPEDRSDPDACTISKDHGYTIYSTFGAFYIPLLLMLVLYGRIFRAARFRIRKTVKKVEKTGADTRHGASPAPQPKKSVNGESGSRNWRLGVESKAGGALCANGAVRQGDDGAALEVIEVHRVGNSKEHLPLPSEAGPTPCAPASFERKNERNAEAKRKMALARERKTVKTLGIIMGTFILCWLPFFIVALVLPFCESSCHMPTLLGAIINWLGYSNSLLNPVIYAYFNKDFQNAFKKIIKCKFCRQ
Description: Activity at human cloned 5HT1A receptor expressed in CHO cells assessed as blockade of 5-HT-stimulated [35S]GTPgammaS binding

[4] = biological target: T1, 5-hydroxytryptamine receptor 1A; assay: biochemical
[5] = organism: Rattus norvegicus; assay: Displacement of [3H]prazosin from alpha1 adrenergic receptor in Sprague-Dawley rat cortical membrane at 1 uM
[6] = biological target: T2, 5-hydroxytryptamine receptor 1A (Homo sapiens) (UniProt P08908); assay: Displacement of [3H]8-OH-DPAT from human recombinant 5HT1A receptor expressed in CHO cells at 1uM; type: cell-based
T2 sequence (whole entry): T1 sequence (P08908 whole entry)

Chain of Sodium-dependent serotonin transporter (Homo sapiens, UniProt P31645) (P31645 whole entry): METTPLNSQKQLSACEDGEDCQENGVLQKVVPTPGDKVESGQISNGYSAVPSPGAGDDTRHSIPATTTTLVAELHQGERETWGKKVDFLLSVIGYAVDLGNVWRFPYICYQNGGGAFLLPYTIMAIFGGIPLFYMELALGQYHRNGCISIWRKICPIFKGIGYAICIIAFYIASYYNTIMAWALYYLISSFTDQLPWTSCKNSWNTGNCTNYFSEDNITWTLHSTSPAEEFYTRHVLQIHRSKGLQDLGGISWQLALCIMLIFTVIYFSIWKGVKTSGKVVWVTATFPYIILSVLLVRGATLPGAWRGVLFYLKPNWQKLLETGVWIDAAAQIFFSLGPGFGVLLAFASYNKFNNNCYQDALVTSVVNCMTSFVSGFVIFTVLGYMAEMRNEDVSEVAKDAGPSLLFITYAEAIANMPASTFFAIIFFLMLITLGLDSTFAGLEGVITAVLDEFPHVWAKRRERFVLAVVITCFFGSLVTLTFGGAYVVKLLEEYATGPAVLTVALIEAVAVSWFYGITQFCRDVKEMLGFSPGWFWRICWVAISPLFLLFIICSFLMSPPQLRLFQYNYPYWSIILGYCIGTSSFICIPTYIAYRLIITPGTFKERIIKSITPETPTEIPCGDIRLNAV
Chain of Sodium-dependent serotonin transporter (Rattus norvegicus, UniProt P31652) (P31652 whole entry): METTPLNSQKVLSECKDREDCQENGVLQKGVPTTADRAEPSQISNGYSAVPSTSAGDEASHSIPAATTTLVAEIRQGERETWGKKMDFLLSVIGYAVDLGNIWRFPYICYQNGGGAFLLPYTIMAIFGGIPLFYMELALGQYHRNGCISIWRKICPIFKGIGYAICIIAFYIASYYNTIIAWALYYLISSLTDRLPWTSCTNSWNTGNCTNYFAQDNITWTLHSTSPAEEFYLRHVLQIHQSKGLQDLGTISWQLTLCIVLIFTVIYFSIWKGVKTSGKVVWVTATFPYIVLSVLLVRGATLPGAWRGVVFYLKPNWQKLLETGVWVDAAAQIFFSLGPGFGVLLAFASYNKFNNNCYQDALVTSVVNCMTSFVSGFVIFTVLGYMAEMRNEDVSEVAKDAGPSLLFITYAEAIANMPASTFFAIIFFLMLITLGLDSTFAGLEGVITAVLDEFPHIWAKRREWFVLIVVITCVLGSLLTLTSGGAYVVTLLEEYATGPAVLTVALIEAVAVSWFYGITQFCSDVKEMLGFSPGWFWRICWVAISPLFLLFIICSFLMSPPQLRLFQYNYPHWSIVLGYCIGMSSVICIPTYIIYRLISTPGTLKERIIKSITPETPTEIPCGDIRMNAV

Row | IC50 [1] | Ki [2] | IC50 [3] | Activity [5] | Activity [6] | Structure (SMILES) | Ki [4]
1 | 146 nM | 23.4 nM |  | 31% |  | CCCN(CCCc1c[nH]c2ccc(F)cc12)[C@H]1COc2cccc(C(N)=O)c2C1 | 0.93 nM
2 | 27.9 nM | 9.47 nM | > 1000 nM | 12% |  | CCNC(=O)c1ccc(F)c2c1CC(N(CCCc1c[nH]c3ccc(F)cc13)C1CCC1)CO2 (stereo not drawn) | 
3 | 834 nM | > 1000 nM | 419 nM |  |  | COc1ccc2[nH]cc(CCCN(C3CCC3)C3COc4c(F)ccc(C(N)=O)c4C3)c2c1 (stereo not drawn) | 
4 | 43.6 nM | 6.91 nM | > 1000 nM | 31% |  | O=C(NCC1CC1)c1ccc(F)c2c1CC(N(CCCc1c[nH]c3ccc(F)cc13)C1CCC1)CO2 (stereo not drawn) | 
5 | 44.7 nM | 11.3 nM | > 2000 nM | 4% |  | CC(C)NC(=O)c1ccc(F)c2c1CC(N(CCCc1c[nH]c3ccc(F)cc13)C1CCC1)CO2 (stereo not drawn) | 
6 | 24.1 nM | 2.44 nM | 195 nM |  |  | N#Cc1ccc2[nH]cc(CCCN(C3CCC3)C3COc4c(F)ccc(C(N)=O)c4C3)c2c1 (single isomer, unassigned; (-)) | 1.98 nM
7 | 10.1 nM | 9.05 nM | 1000 nM |  |  | N#Cc1ccc2[nH]cc(CCCN(C3CCC3)C3COc4c(F)ccc(C(N)=O)c4C3)c2c1 (single isomer, unassigned; (+)) | 258 nM
8 | 144 nM |  | > 1000 nM | 21% | 44% | O=C(NC1CCCCC1)c1ccc(F)c2c1CC(N(CCCc1c[nH]c3ccc(F)cc13)C1CCC1)CO2 (stereo not drawn) | 
9 | 15 nM | 8.3 nM |  | 27% |  | CNC(=O)c1ccc(F)c2c1CC(N(CCCc1c[nH]c3ccc(F)cc13)C1CCC1)CO2 (stereo not drawn) | 
10 | 1030 nM |  | > 2000 nM | 8% | 4% | O=C(O)c1ccc(F)c2c1CC(N(CCCc1c[nH]c3ccc(F)cc13)C1CCC1)CO2 (stereo not drawn) | 
11 | > 1000 nM | > 1000 nM |  | 15% |  | COc1cccc2c(CCCN(C3CCC3)C3COc4c(F)ccc(C(N)=O)c4C3)c[nH]c12 (stereo not drawn) | 
12 | 69.6 nM | 8.05 nM |  | 12% |  | O=C(NC1CC1)c1ccc(F)c2c1CC(N(CCCc1c[nH]c3ccc(F)cc13)C1CCC1)CO2 (stereo not drawn) | 
13 | 70.6 nM | 7.26 nM |  | 12% |  | O=C(NC1CCC1)c1ccc(F)c2c1CC(N(CCCc1c[nH]c3ccc(F)cc13)C1CCC1)CO2 (stereo not drawn) | 

Row | Structure (SMILES) | IC50 [1] | Ki [2] | IC50 [3] | Activity [5] | Activity [6] | Ki [4]
14 | NC(=O)c1ccc(Cl)c2c1CC(N(CCCc1c[nH]c3ccc(F)cc13)C1CCC1)CO2 (single isomer, unassigned; (-)) | 61.4 nM | 1.98 nM | 125 nM |  |  | 10.9 nM
15 | CCCN(CC1CCc2[nH]c3ccc(F)cc3c2C1)[C@H]1COc2c(F)ccc(C(N)=O)c2C1 (stereo in doubt; 58a) | > 1000 nM | > 1000 nM | > 1000 nM |  |  | 
16 | NC(=O)c1cccc2c1CC(N(CCCc1c[nH]c3ccc(F)cc13)C1CCC1)CO2 (single isomer, unassigned; (-)) | 109 nM | 5.9 nM | 66 nM |  |  | 
17 | NC(=O)c1ccc(Cl)c2c1CC(N(CCCc1c[nH]c3ccc(F)cc13)C1CCC1)CO2 (stereo in doubt; 35d) | 56.5 nM | 3.74 nM | > 1000 nM |  |  | 
18 | CCCN(CCCc1c[nH]c2ccc(F)cc12)C1COc2c(F)ccc(OC)c2C1 (stereo not drawn) | 442 nM | 12.5 nM |  |  |  | 19.4 nM
19 | CCCN(CCCc1c[nH]c2ccc(F)cc12)[C@H]1COc2c(F)ccc(C(=O)NC)c2C1 | 47 nM | 11.3 nM | 752 nM | 39% |  | 2.64 nM
20 | CNC(=O)c1ccc(F)c2c1C[C@@H](N(CCCc1c[nH]c3ccc(F)cc13)C1CCC1)CO2 | 147 nM | 10.2 nM | 262 nM | 0% |  | 1.32 nM
